Measured values from BindingDB's records for doi:10.3109/14756366.2010.487485 (Huazhong University of Science and Technology, 2011).
pIC50: −log10 of the molar value.

How the values were obtained:
[1] = molecular target: Disintegrin and metalloproteinase domain-containing protein 17 (Homo sapiens, UniProt P78536); assay: TACE Assay; conditions: pH 9; 37 °C
Method: Then, 15ng TACE was added to buffer solution containing 140μMTACE peptide substrate at a final volume of 50 μL. After incubation for 15 min at 37°C, the reaction was stopped with 25 μL of 1% TFA. An aliquot of 25μL of internal standard solution was then added and the solution mixture was analysed by HPLC.

[2] = molecular target: Matrix metalloproteinase-9 (Homo sapiens, UniProt P14780); assay: MMP-9 Assay; conditions: pH 7.5; 37 °C
Sequence of Matrix metalloproteinase-9 (P14780 whole entry): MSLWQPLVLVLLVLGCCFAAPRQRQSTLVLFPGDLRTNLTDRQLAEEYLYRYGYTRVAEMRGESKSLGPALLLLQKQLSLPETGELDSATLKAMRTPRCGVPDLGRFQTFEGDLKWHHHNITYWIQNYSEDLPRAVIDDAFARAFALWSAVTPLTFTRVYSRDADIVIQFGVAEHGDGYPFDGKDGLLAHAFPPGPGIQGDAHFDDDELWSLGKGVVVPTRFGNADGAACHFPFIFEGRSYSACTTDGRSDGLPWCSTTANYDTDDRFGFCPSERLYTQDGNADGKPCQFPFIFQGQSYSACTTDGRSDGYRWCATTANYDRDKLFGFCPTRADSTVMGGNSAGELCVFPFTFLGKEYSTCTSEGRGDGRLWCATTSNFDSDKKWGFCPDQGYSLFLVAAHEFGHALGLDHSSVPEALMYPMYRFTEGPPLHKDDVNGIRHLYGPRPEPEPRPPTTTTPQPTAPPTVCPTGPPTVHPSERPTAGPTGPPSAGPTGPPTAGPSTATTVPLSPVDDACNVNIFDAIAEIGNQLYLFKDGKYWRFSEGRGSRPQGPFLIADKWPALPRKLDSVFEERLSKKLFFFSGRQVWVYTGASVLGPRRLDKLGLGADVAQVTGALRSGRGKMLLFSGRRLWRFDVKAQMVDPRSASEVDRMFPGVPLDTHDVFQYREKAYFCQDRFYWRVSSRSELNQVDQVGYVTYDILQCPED
Method: The MMP-9 assay was performed in 50 mM Tris-HCl buffer (pH 7.5, 10mM CaCl2, 150mM NaCl, 0.05% Brij-35). […] After incubation for 25 min at 37°C, the reaction was stopped with 25 μL of 1% TFA. An aliquot of 25 μL internal standard solution was then added and the solution mixture was analysed by HPLC. […] After incubation for 30 min at 37°C, 2 μL of 3 nM MMP-9 substrate was added.

Sequence of Disintegrin and metalloproteinase domain-containing protein 17 (P78536 whole entry, the tested form may be a part): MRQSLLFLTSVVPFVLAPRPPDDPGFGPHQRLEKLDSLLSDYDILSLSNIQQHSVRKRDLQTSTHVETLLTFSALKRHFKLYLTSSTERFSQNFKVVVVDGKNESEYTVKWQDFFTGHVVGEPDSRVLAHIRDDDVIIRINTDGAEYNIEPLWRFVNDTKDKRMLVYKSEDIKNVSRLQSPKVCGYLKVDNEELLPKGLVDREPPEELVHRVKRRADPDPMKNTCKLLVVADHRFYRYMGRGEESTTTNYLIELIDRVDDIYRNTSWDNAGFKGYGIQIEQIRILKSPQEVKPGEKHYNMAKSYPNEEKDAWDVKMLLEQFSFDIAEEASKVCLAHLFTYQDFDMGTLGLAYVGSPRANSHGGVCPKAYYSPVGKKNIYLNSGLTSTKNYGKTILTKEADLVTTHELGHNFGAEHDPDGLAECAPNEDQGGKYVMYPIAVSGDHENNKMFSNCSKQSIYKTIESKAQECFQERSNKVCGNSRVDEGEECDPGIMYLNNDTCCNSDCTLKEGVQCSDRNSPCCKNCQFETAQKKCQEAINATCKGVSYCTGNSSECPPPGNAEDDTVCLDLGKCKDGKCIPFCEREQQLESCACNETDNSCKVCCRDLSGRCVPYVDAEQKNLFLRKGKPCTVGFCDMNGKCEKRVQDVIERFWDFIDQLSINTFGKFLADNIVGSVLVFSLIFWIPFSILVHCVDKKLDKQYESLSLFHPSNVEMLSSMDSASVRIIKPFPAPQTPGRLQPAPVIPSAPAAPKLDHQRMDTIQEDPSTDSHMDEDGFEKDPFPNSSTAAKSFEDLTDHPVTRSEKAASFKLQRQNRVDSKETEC

Row | pIC50 [1] | pIC50 [2] | SMILES
1 | 6.50 |  | CNC(=O)[C@H](Cc1c[nH]c2ccccc12)NC(=O)[C@@H](CC(=O)NO)CC(C)C [GM6001]
2 | 6.76 | 6.27 | O=C(Cc1cc2ccccc2oc1=O)NO [Inhibitor A]
